# Laboratory results reported in patent US20110143948A1, “MOLECULAR SIGNATURES AND BIOMARKERS ASSOCIATED WITH MELANOMA AND METHODS OF USE THEREOF” (priority 2008, published 2011).
# Tested on: ncRNAs (SEQ ID NO 28-89)
# Experiment: ncRNA arrays of melanocytes, keratinocytes, normal skin, melanoma cell lines and patient samples
# Design: species or system human
# Details: for ncRNA array expression, patient 2: melanoma patient 2 sample compared to normal skin; for ncRNA array expression, patient 3: melanoma patient 3 sample compared to normal skin; for ncRNA array expression, patient 4: melanoma patient 4 sample compared to normal skin; for ncRNA array expression, patient 5: melanoma patient 5 sample compared to normal skin; for ncRNA array expression, patient 6: melanoma patient 6 sample compared to normal skin; for ncRNA array expression, patient 7: melanoma patient 7 sample compared to normal skin; for ncRNA array expression, patient 8: melanoma patient 8 sample compared to normal skin; for ncRNA array expression, patient 9: melanoma patient 9 sample compared to normal skin; for ncRNA array expression, patient 10: melanoma patient 10 sample compared to normal skin; for ncRNA array expression, patient 19: melanoma patient 19 sample compared to normal skin; for ncRNA array expression, patient 20: melanoma patient 20 sample compared to normal skin; for ncRNA array expression, patient 21: melanoma patient 21 sample compared to normal skin; for ncRNA array expression, patient 22: melanoma patient 22 sample compared to normal skin; for ncRNA array expression, patient 23: melanoma patient 23 sample compared to normal skin; for ncRNA array expression, patient 24: melanoma patient 24 sample compared to normal skin; for ncRNA array expression, patient 25: melanoma patient 25 sample compared to normal skin; for ncRNA array expression, patient 26: melanoma patient 26 sample compared to normal skin; for ncRNA array expression, patient 27: melanoma patient 27 sample compared to normal skin; for ncRNA array expression, patient 28: melanoma patient 28 sample compared to normal skin; for ncRNA array expression, patient 29: melanoma patient 29 sample compared to normal skin; for ncRNA array expression, patient 30: melanoma patient 30 sample compared to normal skin
# Description: An ncRNA array platform that contains over 10,000 putative (>200 nt) ncRNAs including most of the known ncRNAs in mouse and human was conducted to evaluate ncRNAs within melanoma. Lack of coding potential was estimated by an algorithm that scores various characteristics of protein-coding genes, including open reading frame length, synonymous/non-synonymous base substitution rates and similarity to known proteins. These arrays provide the first generation of tools designed to analyze the dynamic expression of a large subset of ncRNAs in human and mouse and to identify candidate genes for more detailed functional analysis. In addition to the ncRNA content, probes targeting mRNA content from RefSeq are also included, allowing discovery of coordinated expression with associated protein-coding genes. The result of these assays is a list of ncRNA genes (i.e. SEQ ID NO 28-89) and maps of their sequence boundaries. We have profiled total RNA isolated from melanocytes, keratinocytes, normal human skin, melanoma cell lines and melanoma patient samples to identify differentially expressed ncRNAs in cell lines and tissues. ncRNAs expression in all tested samples were compared to either melanocytes or normal skin. We have identified a group of ncRNAs that are specific for (a) melanocytes (b) Keratinocytes (c) Melanoma cell lines (d) Melanoma patients. […] Probe DNA sequences for this array include: AF086032 (SEQ ID NO 107) […] BC071821 (SEQ ID NO 108) […] C AK130193 (SEQ ID NO 109) […] AL109719 (SEQ ID NO 110) […] AF085888 (SEQ ID NO 111) […] T BC033879 (SEQ ID NO 112) […] AA AK024556 (SEQ ID NO 113) […] Probe nomenclature is standard genebank IDs given by NCBI and other organizations.
# Keratinocytes specific signatures were subtracted and resultant ncRNAs were validated by qRT-PCR and Northern blots. Results point out the presence of a group of melanoma specific ncRNAs (i.e. SEQ ID NO 28-89).
Substance,"ncRNA array expression, patient 2","ncRNA array expression, patient 3","ncRNA array expression, patient 4","ncRNA array expression, patient 5","ncRNA array expression, patient 6","ncRNA array expression, patient 7","ncRNA array expression, patient 8","ncRNA array expression, patient 9","ncRNA array expression, patient 10","ncRNA array expression, patient 19","ncRNA array expression, patient 20","ncRNA array expression, patient 21","ncRNA array expression, patient 22","ncRNA array expression, patient 23","ncRNA array expression, patient 24","ncRNA array expression, patient 25","ncRNA array expression, patient 26","ncRNA array expression, patient 27","ncRNA array expression, patient 28","ncRNA array expression, patient 29",also measured
"SEQ ID NO 35 (GTTTCCATTGAAGAATATTACGCTCGGGGACAAGCCAGGTGCACGACCAAAAATTTAAAA; DNA, backbone and methylation of C not given here; listed as Homo sapiens)",1.513,3.848,3.278,2.521,2.07,3.025,2.14,−0.1931,3.606,0.9237,2.507,2.618,0.8167,2.729,−2.783,1.774,3.301,3.86,4.108,3.127,"ncRNA array expression, patient 30: −0.8323"
"SEQ ID NO 36 (TATTTGTGACTAACTGTATAACAGGTTATTTTAGTTTCTGTTCTGTGGGAAGTGTAAAGC; listed as DNA, chemistry not given here; listed as Homo sapiens)",3.977,3.577,4.181,4.05,3.52,4.601,4.36,3.565,2.818,3.798,4.669,3.909,3.164,2.96,3.815,5.084,4.401,4.909,4.878,4.381,"ncRNA array expression, patient 30: −1.698"
"SEQ ID NO 37 (ACGCACTGGGCGTTGAAGCAGTGCTTTCTGGATTAAATACGAAATACTGATGTCACAAGC; DNA, backbone and methylation of C not given here; listed as Homo sapiens)",1.589,0.3993,0.7773,2.425,−0.3494,1.933,1.302,2.619,3.899,4.51,0.9938,2.575,0.0988,1.771,4.312,3.471,2.31,0.5554,1.732,2.461,"ncRNA array expression, patient 30: −1.17"
"SEQ ID NO 38 (GTAAACAAGGTCTCACAAAAACAGCTGACCACACCATAAAATCACTGAGACCGAGCCTGC; listed as DNA, chemistry not given here; listed as Homo sapiens)",−1.1813,−1.02,−0.9275,−1.288,−1.615,−1.64,−1.244,−1.183,−0.784,−0.7729,−0.9285,−1.068,−0.7593,−1.569,−1.078,−1.365,−1.368,−1.317,−1.181,−1.249,"ncRNA array expression, patient 30: 0.333"
"SEQ ID NO 39 (TGATCCTGTAAATCATGTTTTTGTTTATTCCCCAACACTAACCTCACTCCTTTACTATTC; listed as DNA, chemistry not given here; listed as Homo sapiens)",−1.04,−0.7852,−1.149,−1.017,−0.9404,−1.086,−0.9282,−1.306,−1.237,−0.6006,−1.263,−1.232,−0.301,−0.164,−1.204,−1.66,−1.776,−1.287,−1.448,−1.374,"ncRNA array expression, patient 30: 0.02356"
"SEQ ID NO 40 (GTTAAAGACTAAATTAGTGATTTGGGAGATCAAGCCAATGGGCTTGTCTAAAACCTAGTC; listed as DNA, chemistry not given here; listed as Homo sapiens)",1.341,1.98,2.261,0.52,1.498,0.4373,1.771,0.4625,0.3577,0.3342,0.9994,0.489,0.9011,1.125,0.452,2.17,2.021,1.467,1.364,1.245,"ncRNA array expression, patient 30: 0.7348"
"SEQ ID NO 41 (CTCGTAACACTGGGAAAACTGCATACAATATTTAGAAGGAACACTAATACAGCAGAATCT; listed as DNA, chemistry not given here; listed as Homo sapiens)",−2.529,−2.702,−2.655,−2.566,−2.676,−2.596,−2.699,−2.456,−2.262,−0.5732,−2.545,−2.574,−2.212,−1.1449,−2.6637,−2.4383,−2.458,−2.204,−2.5405,−2.614,"ncRNA array expression, patient 30: 0.7101"
